Laboratory results taken from ChEMBL document CHEMBL1201862, “PubChem BioAssay data set” (2004).
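Test compounds were applied to cells in 96-well plates for 48 hours at 5 doses. GI50 = concentration required for 50% inhibition of growth.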 The source made the active and inactive calls. Rule as the data show it: active = GI50 up to about 1.1 µM and inactive = higher.

Legend:
Assay in all cases: DTP human tumour cell line panel, 48 h
DLD-1 = test system: DLD-1
SK-MEL-2 = test system: SK-MEL-2
DMS-273 = test system: DMS-273
RPMI-8226 = test system: RPMI-8226
M14 = test system: M14
KM-20L2 = test system: KM-20L2
ACHN = test system: ACHN
M19-MEL = test system: M19-MEL
A498 = test system: A498
NCI-H226 = test system: NCI-H226
SK-OV-3 = test system: SK-OV-3
MOLT-4 = test system: MOLT-4
MCF7 = test system: MCF7
NCI/ADR-RES = test system: NCI/ADR-RES
RXF 393 = test system: RXF 393
BT-549 = test system: BT-549
T47D = test system: T47D
Hs-578T = test system: Hs-578T
SR = test system: SR
NCI-H522 = test system: NCI-H522

SMILES	GI50 (DLD-1)	GI50 (SK-MEL-2)	GI50 (DMS-273)	GI50 (RPMI-8226)	GI50 (M14)	GI50 (KM-20L2)	GI50 (ACHN)	GI50 (M19-MEL)	GI50 (A498)	GI50 (NCI-H226)	GI50 (SK-OV-3)	GI50 (MOLT-4)	GI50 (MCF7)	GI50 (NCI/ADR-RES)	GI50 (RXF 393)	GI50 (BT-549)	GI50 (T47D)	GI50 (Hs-578T)	GI50 (SR)	GI50 (NCI-H522)
c1ccc(C(c2ccccc2)c2cccnc2)cc1	> 100 µM (inactive)	> 100 µM (inactive)	> 100 µM (inactive)	46.1 µM (inactive)	> 100 µM (inactive)	> 100 µM (inactive)	> 100 µM (inactive)	> 100 µM (inactive)	> 100 µM (inactive)	> 100 µM (inactive)	> 100 µM (inactive)	–	–	–	–	–	–	–	–	–
COc1ccc(O)c(C#N)c1C#N.COc1ccc(OC)c(C#N)c1C#N	> 100 µM (inactive)	> 100 µM (inactive)	> 100 µM (inactive)	> 100 µM (inactive)	–	> 100 µM (inactive)	–	> 100 µM (inactive)	> 100 µM (inactive)	> 100 µM (inactive)	> 100 µM (inactive)	> 100 µM (inactive)	> 100 µM (inactive)	> 100 µM (inactive)	> 100 µM (inactive)	–	–	–	–	–
CO/N=C1\CC(NC(=O)C(F)(F)F)c2ccsc21 (stereo not given)	–	> 100 µM (inactive)	–	–	> 100 µM (inactive)	–	–	–	> 100 µM (inactive)	> 100 µM (inactive)	> 100 µM (inactive)	> 100 µM (inactive)	> 100 µM (inactive)	> 100 µM (inactive)	> 100 µM (inactive)	> 100 µM (inactive)	> 100 µM (inactive)	> 100 µM (inactive)	> 100 µM (inactive)	–
CNC(=O)OCc1c(CO)nc(SC)n1C	> 100 µM (inactive)	> 100 µM (inactive)	> 100 µM (inactive)	> 100 µM (inactive)	–	> 100 µM (inactive)	–	> 100 µM (inactive)	> 100 µM (inactive)	> 100 µM (inactive)	> 100 µM (inactive)	> 100 µM (inactive)	> 100 µM (inactive)	> 100 µM (inactive)	> 100 µM (inactive)	–	–	–	–	> 100 µM (inactive)
O=C(O)c1ccccc1/N=C/c1ccc(N(CCCl)CCCl)cc1	> 100 µM (inactive)	> 100 µM (inactive)	81.1 µM (inactive)	> 100 µM (inactive)	–	> 100 µM (inactive)	–	> 100 µM (inactive)	> 40.5 µM (inactive)	–	> 91.2 µM (inactive)	36.6 µM (inactive)	> 84.7 µM (inactive)	> 100 µM (inactive)	> 48.3 µM (inactive)	–	–	–	–	> 100 µM (inactive)
O=[N+]([O-])c1ccc(-c2ccc([C@H]3CC(c4cc(F)c(Cl)cc4Cl)=NN3)o2)cc1	–	–	–	20.9 µM (inactive)	13.3 µM (inactive)	–	32.1 µM (inactive)	–	35.5 µM (inactive)	21.9 µM (inactive)	39.2 µM (inactive)	1.95 µM (inactive)	16.7 µM (inactive)	21.6 µM (inactive)	39.2 µM (inactive)	25.4 µM (inactive)	5.48 µM (inactive)	> 100 µM (inactive)	0.621 µM (active)	16.6 µM (inactive)
COc1cc2nc(-c3cccs3)nc(N3CCN(c4ccccc4)CC3)c2cc1OC	–	> 100 µM (inactive)	–	> 100 µM (inactive)	> 100 µM (inactive)	–	> 100 µM (inactive)	–	> 100 µM (inactive)	> 100 µM (inactive)	> 100 µM (inactive)	–	> 100 µM (inactive)	> 100 µM (inactive)	–	> 100 µM (inactive)	> 100 µM (inactive)	> 100 µM (inactive)	> 100 µM (inactive)	> 100 µM (inactive)
COc1ccc(C(C#N)NC23CC4CC(CC(C4)C2)C3)cc1OC (stereo not given)	–	> 100 µM (inactive)	–	> 100 µM (inactive)	> 100 µM (inactive)	–	> 100 µM (inactive)	–	–	79.4 µM (inactive)	> 100 µM (inactive)	> 100 µM (inactive)	> 100 µM (inactive)	> 100 µM (inactive)	> 100 µM (inactive)	> 100 µM (inactive)	> 100 µM (inactive)	> 100 µM (inactive)	> 100 µM (inactive)	> 100 µM (inactive)
Brc1ccc2[nH]c3c(C4=NCCC4)nccc3c2c1	15.5 µM (inactive)	13.9 µM (inactive)	14.4 µM (inactive)	9.27 µM (inactive)	–	8.17 µM (inactive)	–	26.9 µM (inactive)	–	10.2 µM (inactive)	26.7 µM (inactive)	8.45 µM (inactive)	9.25 µM (inactive)	40 µM (inactive)	16.3 µM (inactive)	–	–	–	–	9.12 µM (inactive)
CC[C@H](C)[C@H]1NC(=O)C(C(C)=O)=C1O	70.3 µM (inactive)	95.3 µM (inactive)	> 100 µM (inactive)	–	> 100 µM (inactive)	> 100 µM (inactive)	> 100 µM (inactive)	71.3 µM (inactive)	> 100 µM (inactive)	> 100 µM (inactive)	–	> 100 µM (inactive)	–	–	23.3 µM (inactive)	–	–	–	58.3 µM (inactive)	88.5 µM (inactive)
O=[N+]([O-])c1ccc(Cc2nc3cc4ccccc4cc3[nH]2)cc1C(F)(F)F	–	20 µM (inactive)	–	–	12.4 µM (inactive)	–	15.8 µM (inactive)	–	17.7 µM (inactive)	–	13.5 µM (inactive)	13.1 µM (inactive)	15.5 µM (inactive)	11.4 µM (inactive)	13.2 µM (inactive)	18.2 µM (inactive)	3.33 µM (inactive)	11.6 µM (inactive)	–	20.4 µM (inactive)
CCOC(=O)Cn1c(=O)ccn(COCCO)c1=O	–	> 100 µM (inactive)	–	> 100 µM (inactive)	> 100 µM (inactive)	–	> 100 µM (inactive)	–	> 100 µM (inactive)	–	–	> 100 µM (inactive)	> 100 µM (inactive)	> 100 µM (inactive)	> 100 µM (inactive)	> 100 µM (inactive)	> 100 µM (inactive)	> 100 µM (inactive)	> 10 µM (inactive)	> 100 µM (inactive)
CCO/C=N\C1=C(C#N)SC2=N/C(=C\c3ccc(OC)cc3)C(=O)N21	–	–	–	> 100 µM (inactive)	> 100 µM (inactive)	–	94.2 µM (inactive)	–	> 100 µM (inactive)	> 100 µM (inactive)	96.8 µM (inactive)	> 100 µM (inactive)	> 100 µM (inactive)	> 100 µM (inactive)	43.5 µM (inactive)	–	> 100 µM (inactive)	33.7 µM (inactive)	82.8 µM (inactive)	79.8 µM (inactive)
